In PMC5218480 (PLoS ONE, 2017):

Test system: MV-4-11 cells
Experiment: Gene expression microarray analysis (Affymetrix PrimeView) and GSEA
Format: cell-based, human
Parameters: RFU PODN (11730768_x_at) / Fold change /veh PODN (11730768_x_at) / RFU LINC00158 (11744669_a_at) / Fold change /veh LINC00158 (11744669_a_at) / RFU DUSP10 (11751237_a_at) / Fold change /veh DUSP10 (11751237_a_at) / RFU ID3 (11757404_x_at) / Fold change /veh ID3 (11757404_x_at) / RFU PLEKHG5 (11737974_s_at) / Fold change /veh PLEKHG5 (11737974_s_at) / RFU LRRC4B (11730491_at) / Fold change /veh LRRC4B (11730491_at) / RFU GIMAP4 (11747438_a_at) / Fold change /veh GIMAP4 (11747438_a_at) / RFU KRT8 (11758183_x_at) / Fold change /veh KRT8 (11758183_x_at) / RFU CNN1 (11734310_a_at) / Fold change /veh CNN1 (11734310_a_at) / RFU VPS37D (11726825_at) / Fold change /veh VPS37D (11726825_at) / RFU C10orf10 (11716522_x_at) / Fold change /veh C10orf10 (11716522_x_at) / RFU KIR2DL2 /// KIR2DL4 /// KIR2DL5A /// KIR2DL5B /// KIR2DS1 /// KIR2DS2 /// KIR2DS3 /// KIR2DS4 /// KIR3DL3 /// KIR3DL3 /// KIR3DS1 (11738374_at) / Fold change /veh KIR2DL2 /// KIR2DL4 /// KIR2DL5A /// KIR2DL5B /// KIR2DS1 /// KIR2DS2 /// KIR2DS3 /// KIR2DS4 /// KIR3DL3 /// KIR3DL3 /// KIR3DS1 (11738374_at) / RFU C1QL1 (11718748_at) / Fold change /veh C1QL1 (11718748_at) / RFU TMPRSS4 (11747572_a_at) / Fold change /veh TMPRSS4 (11747572_a_at) / RFU HAMP (11756126_x_at) / Fold change /veh HAMP (11756126_x_at) / RFU RNFT2 (11725882_a_at) / Fold change /veh RNFT2 (11725882_a_at) / RFU NR4A2 (11747474_a_at) / Fold change /veh NR4A2 (11747474_a_at) / RFU ABCC12 (11746883_a_at) / Fold change /veh ABCC12 (11746883_a_at) / RFU TMEM136 (11760407_x_at) / Fold change /veh TMEM136 (11760407_x_at) / RFU CLDN22 /// WWC2 (11732394_at) / Fold change /veh CLDN22 /// WWC2 (11732394_at) / RFU HLA-DPB1 (11760878_x_at) / Fold change /veh HLA-DPB1 (11760878_x_at) / RFU SPINT1 (11716480_a_at) / Fold change /veh SPINT1 (11716480_a_at) / RFU GAP43 (11754022_s_at) / Fold change /veh GAP43 (11754022_s_at) / RFU A4GNT (11735810_at) / Fold change /veh A4GNT (11735810_at) / RFU PRB3 (11715151_x_at) / Fold change /veh PRB3 (11715151_x_at) / RFU TUBB4B (11761932_at) / Fold change /veh TUBB4B (11761932_at) / RFU CAPN14 (11732068_a_at) / Fold change /veh CAPN14 (11732068_a_at) / RFU TMCC2 (11721928_a_at) / Fold change /veh TMCC2 (11721928_a_at) / RFU IRGQ (11745062_a_at) / Fold change /veh IRGQ (11745062_a_at) / RFU FAM174B (11720279_a_at) / Fold change /veh FAM174B (11720279_a_at) / RFU TMPRSS4 (11748680_a_at) / Fold change /veh TMPRSS4 (11748680_a_at) / RFU FAM212B (11763350_a_at) / Fold change /veh FAM212B (11763350_a_at) / RFU PLEKHG5 (11743358_a_at) / Fold change /veh PLEKHG5 (11743358_a_at) / RFU ZSCAN30 (11745921_a_at) / Fold change /veh ZSCAN30 (11745921_a_at) / RFU CMKLR1 (11741424_a_at) / Fold change /veh CMKLR1 (11741424_a_at) / RFU LOC101060620 /// MAPK8IP1 (11723275_at) / Fold change /veh LOC101060620 /// MAPK8IP1 (11723275_at) / RFU SPTSSB (11747773_x_at) / Fold change /veh SPTSSB (11747773_x_at) / RFU PRSS12 (11739890_at) / Fold change /veh PRSS12 (11739890_at) / RFU BIN1 (11741810_x_at) / Fold change /veh BIN1 (11741810_x_at) / RFU WNT11 (11732464_a_at) / Fold change /veh WNT11 (11732464_a_at) / RFU C10orf10 (11716521_a_at) / Fold change /veh C10orf10 (11716521_a_at) / RFU C5orf56 (11738089_at) / Fold change /veh C5orf56 (11738089_at) / RFU CYB561 (11721691_x_at) / Fold change /veh CYB561 (11721691_x_at) / RFU ANKRD19P (11752326_a_at) / Fold change /veh ANKRD19P (11752326_a_at) / RFU OR2T12 /// OR2T33 /// OR2T8 (11738714_s_at) / Fold change /veh OR2T12 /// OR2T33 /// OR2T8 (11738714_s_at) / RFU VCAN (11748164_a_at) / Fold change /veh VCAN (11748164_a_at) / RFU JSRP1 (11732532_at) / Fold change /veh JSRP1 (11732532_at) / RFU KRTAP10-11 (11738290_x_at) / Fold change /veh KRTAP10-11 (11738290_x_at) / RFU MYO3A (11730013_a_at) / Fold change /veh MYO3A (11730013_a_at) / RFU EBF3 (11725865_a_at) / Fold change /veh EBF3 (11725865_a_at) / RFU CAMK2N1 (11719241_x_at) / Fold change /veh CAMK2N1 (11719241_x_at) / RFU C5orf56 (11738088_a_at) / Fold change /veh C5orf56 (11738088_a_at) / RFU OLFML3 (11715873_a_at) / Fold change /veh OLFML3 (11715873_a_at) / RFU LOC100653217 /// NTM (11731650_a_at) / Fold change /veh LOC100653217 /// NTM (11731650_a_at) / RFU MAPK11 (11762145_a_at) / Fold change /veh MAPK11 (11762145_a_at) / RFU FIZ1 (11724087_x_at) / Fold change /veh FIZ1 (11724087_x_at) / RFU OASL (11726364_x_at) / Fold change /veh OASL (11726364_x_at) / RFU SOX15 (11748057_x_at) / Fold change /veh SOX15 (11748057_x_at) / RFU CD79A (11719716_a_at) / Fold change /veh CD79A (11719716_a_at) / RFU HIST1H1D (11736915_at) / Fold change /veh HIST1H1D (11736915_at) / RFU CASKIN2 (11723855_a_at) / Fold change /veh CASKIN2 (11723855_a_at) / RFU LOC730098 (11760151_x_at) / Fold change /veh LOC730098 (11760151_x_at) / RFU OR4N2 (11742367_at) / Fold change /veh OR4N2 (11742367_at) / RFU PRRT2 (11749266_a_at) / Fold change /veh PRRT2 (11749266_a_at) / RFU SNX32 (11753110_a_at) / Fold change /veh SNX32 (11753110_a_at) / RFU CDHR5 (11726645_a_at) / Fold change /veh CDHR5 (11726645_a_at) / RFU RCAN1 (11760418_a_at) / Fold change /veh RCAN1 (11760418_a_at) / RFU FAM167A (11723789_a_at) / Fold change /veh FAM167A (11723789_a_at) / RFU FAM26E (11764081_at) / Fold change /veh FAM26E (11764081_at) / RFU ISYNA1 (11749810_s_at) / Fold change /veh ISYNA1 (11749810_s_at) / RFU ACY1 (11761880_at) / Fold change /veh ACY1 (11761880_at) / RFU 11764098_at / Fold change /veh 11764098_at / RFU SAMD14 (11745864_x_at) / Fold change /veh SAMD14 (11745864_x_at) / RFU NPB (11741838_a_at) / Fold change /veh NPB (11741838_a_at) / RFU TMPRSS6 (11731388_a_at) / Fold change /veh TMPRSS6 (11731388_a_at) / RFU KRTAP10-2 (11738614_at) / Fold change /veh KRTAP10-2 (11738614_at) / RFU ARHGAP8 /// PRR5-ARHGAP8 (11727945_x_at) / Fold change /veh ARHGAP8 /// PRR5-ARHGAP8 (11727945_x_at) / RFU KRTAP5-7 /// NADSYN1 (11734609_at) / Fold change /veh KRTAP5-7 /// NADSYN1 (11734609_at) / RFU RASL12 (11751679_a_at) / Fold change /veh RASL12 (11751679_a_at) / RFU CDKN2B (11736163_a_at) / Fold change /veh CDKN2B (11736163_a_at) / RFU PRF1 (11729649_at) / Fold change /veh PRF1 (11729649_at) / RFU, ZNF638 /// ZNF638-IT1 / Fold change vs veh, ZNF638 /// ZNF638-IT1 / RFU, PANK3 / Fold change vs veh, PANK3 / RFU, SH3YL1 / Fold change vs veh, SH3YL1 / RFU, ZEB2 / Fold change vs veh, ZEB2 / RFU, NRIP1 / Fold change vs veh, NRIP1 / RFU, PTTG1IP / Fold change vs veh, PTTG1IP / RFU, CAPN2 / Fold change vs veh, CAPN2 / RFU, MED14 / Fold change vs veh, MED14 / RFU, SNORA58 / Fold change vs veh, SNORA58 / RFU, C1orf63 / Fold change vs veh, C1orf63 / RFU, LRRFIP1 / Fold change vs veh, LRRFIP1 / RFU, NDUFAF7 / Fold change vs veh, NDUFAF7 / RFU, SLC12A2 / Fold change vs veh, SLC12A2 / RFU, IBTK / Fold change vs veh, IBTK / RFU, ESF1 / Fold change vs veh, ESF1 / Fold change vs veh, TMEM50B / RFU, TAOK1 / Fold change vs veh, TAOK1 / RFU, ACBD3 / Fold change vs veh, ACBD3 / RFU, TMA16 / Fold change vs veh, TMA16 / RFU, RWDD3 / Fold change vs veh, RWDD3 / RFU, BCAT1 / Fold change vs veh, BCAT1 / RFU, EDEM3 / Fold change vs veh, EDEM3 / RFU, TMEM33 / Fold change vs veh, TMEM33 / RFU, WDR75 / Fold change vs veh, WDR75 / RFU, AHCTF1 / Fold change vs veh, AHCTF1 / RFU, TFRC / Fold change vs veh, TFRC / RFU, ZDHHC17 / Fold change vs veh, ZDHHC17 / RFU, NOM1 / Fold change vs veh, NOM1 / RFU, ARL8B / Fold change vs veh, ARL8B / RFU, ZBTB11 / Fold change vs veh, ZBTB11 / RFU, TAMM41 / Fold change vs veh, TAMM41 / RFU, KIAA1704 /// LOC100996395 / Fold change vs veh, KIAA1704 /// LOC100996395 / RFU, ING1 / Fold change vs veh, ING1 / RFU, TRMT61B / Fold change vs veh, TRMT61B / RFU, FUBP3 / Fold change vs veh, FUBP3 / RFU, TP53 / Fold change vs veh, TP53 / RFU, TNKS2 / Fold change vs veh, TNKS2 / RFU, ZFP14 / Fold change vs veh, ZFP14 / RFU, ACTR2 / Fold change vs veh, ACTR2 / RFU, PPP3R1 / Fold change vs veh, PPP3R1 / RFU, PIK3R1 / Fold change vs veh, PIK3R1 / RFU, HNRNPA1 / Fold change vs veh, HNRNPA1 / RFU, RNF170 / Fold change vs veh, RNF170 / RFU, ZNF28 / Fold change vs veh, ZNF28 / RFU, RNGTT / Fold change vs veh, RNGTT / RFU, OGT / Fold change vs veh, OGT / RFU, BRD1 / Fold change vs veh, BRD1 / RFU, MARS / Fold change vs veh, MARS / RFU, ZNF655 / Fold change vs veh, ZNF655 / RFU, FAHD1 / Fold change vs veh, FAHD1 / RFU, BDP1 / Fold change vs veh, BDP1 / RFU, LRRCC1 / Fold change vs veh, LRRCC1 / RFU, ARID1A / Fold change vs veh, ARID1A / RFU, ZNF146 / Fold change vs veh, ZNF146 / RFU, ZNF330 / Fold change vs veh, ZNF330 / RFU, GPN3 / Fold change vs veh, GPN3 / RFU, C9orf123 / Fold change vs veh, C9orf123 / RFU, N4BP2L2 / Fold change vs veh, N4BP2L2 / RFU, ARFIP1 / Fold change vs veh, ARFIP1 / RFU, FAM179B / Fold change vs veh, FAM179B / RFU, BCL10 / Fold change vs veh, BCL10 / RFU, UHRF1BP1L / Fold change vs veh, UHRF1BP1L / RFU, BET1 / Fold change vs veh, BET1 / RFU, CNOT2 / Fold change vs veh, CNOT2 / RFU, ZNF268 / Fold change vs veh, ZNF268 / Fold change vs veh, ZNF507 / RFU, DGCR2 / Fold change vs veh, DGCR2 / RFU, WDSUB1 / Fold change vs veh, WDSUB1 / Fold change vs veh, HSP90B1 /// MIR3652 / RFU, ADSS / Fold change vs veh, ADSS / RFU, GK / Fold change vs veh, GK / RFU, ZNF148 / Fold change vs veh, ZNF148 / RFU, TAF9 / Fold change vs veh, TAF9 / RFU, SLC1A5 / Fold change vs veh, SLC1A5 / RFU, SLMO2 / Fold change vs veh, SLMO2 / RFU, ABCC4 / Fold change vs veh, ABCC4 / RFU, LOC101060439 /// RAP1B / Fold change vs veh, LOC101060439 /// RAP1B / RFU, RFX7 / Fold change vs veh, RFX7 / RFU, GTPBP10 / Fold change vs veh, GTPBP10 / RFU, CNEP1R1 / Fold change vs veh, CNEP1R1 / RFU, BIVM-ERCC5 /// ERCC5 / Fold change vs veh, BIVM-ERCC5 /// ERCC5 / RFU, ILF3 / Fold change vs veh, ILF3 / RFU 11762660_at / Fold change /veh 11762660_at / RFU VCAN (11757783_s_at) / Fold change /veh VCAN (11757783_s_at) / RFU DDX43 (11728927_at) / Fold change /veh DDX43 (11728927_at) / RFU KRT8 (11758188_x_at) / Fold change /veh KRT8 (11758188_x_at) / RFU NKD1 (11759106_at) / Fold change /veh NKD1 (11759106_at) / RFU SRD5A1 (11742802_a_at) / Fold change /veh SRD5A1 (11742802_a_at) / RFU TPSAB1 /// TPSB2 (11721975_s_at) / Fold change /veh TPSAB1 /// TPSB2 (11721975_s_at) / RFU GSTM3 (11746129_a_at) / Fold change /veh GSTM3 (11746129_a_at) / RFU IL23R (11737362_x_at) / Fold change /veh IL23R (11737362_x_at) / RFU TMEM51 (11727254_a_at) / Fold change /veh TMEM51 (11727254_a_at) / RFU PIWIL2 (11732686_x_at) / Fold change /veh PIWIL2 (11732686_x_at) / RFU ORM1 (11744905_x_at) / Fold change /veh ORM1 (11744905_x_at) / RFU CCDC152 (11743942_at) / Fold change /veh CCDC152 (11743942_at) / RFU ECM1 (11717891_a_at) / Fold change /veh ECM1 (11717891_a_at) / RFU IL23R (11748794_a_at) / Fold change /veh IL23R (11748794_a_at) / RFU TNFAIP8L3 (11732012_x_at) / Fold change /veh TNFAIP8L3 (11732012_x_at) / RFU MBOAT4 (11741988_at) / Fold change /veh MBOAT4 (11741988_at) / RFU 11764193_at / Fold change /veh 11764193_at / RFU TMEM53 (11763286_at) / Fold change /veh TMEM53 (11763286_at) / RFU MAGEB2 (11727129_at) / Fold change /veh MAGEB2 (11727129_at) / RFU TMEM200A (11744735_a_at) / Fold change /veh TMEM200A (11744735_a_at) / RFU CCDC152 (11751479_a_at) / Fold change /veh CCDC152 (11751479_a_at) / RFU FAM211A (11726209_a_at) / Fold change /veh FAM211A (11726209_a_at) / RFU RGS16 (11746705_a_at) / Fold change /veh RGS16 (11746705_a_at) / RFU VCAN (11755009_s_at) / Fold change /veh VCAN (11755009_s_at) / RFU RHOB (11743442_s_at) / Fold change /veh RHOB (11743442_s_at) / RFU RGS16 (11720943_a_at) / Fold change /veh RGS16 (11720943_a_at) / RFU RGS16 (11720944_at) / Fold change /veh RGS16 (11720944_at) / RFU, VPS4B / Fold change vs veh, VPS4B / RFU, CREB1 / Fold change vs veh, CREB1 / RFU, DNAJC13 / Fold change vs veh, DNAJC13 / RFU, GNAQ / Fold change vs veh, GNAQ / RFU, CDK5R1 / Fold change vs veh, CDK5R1 / RFU, ZRANB3 / Fold change vs veh, ZRANB3 / RFU, CUL4A / Fold change vs veh, CUL4A / RFU, CCNY / Fold change vs veh, CCNY / RFU, UFL1 / Fold change vs veh, UFL1 / RFU, COG3 / Fold change vs veh, COG3 / RFU, DIAPH2 / Fold change vs veh, DIAPH2 / RFU, SKA2 / Fold change vs veh, SKA2 / RFU, AFF3 / Fold change vs veh, AFF3 / RFU, LMF1 / Fold change vs veh, LMF1 / RFU, IPO11 / Fold change vs veh, IPO11 / RFU, DFFB / Fold change vs veh, DFFB / RFU, FOXP1 / Fold change vs veh, FOXP1 / RFU, CARD8 / Fold change vs veh, CARD8 / RFU, STRN3 / Fold change vs veh, STRN3 / RFU, ADK / Fold change vs veh, ADK / RFU, RASSF2 / Fold change vs veh, RASSF2 / RFU, WIPF1 / Fold change vs veh, WIPF1 / RFU, LARP1B / Fold change vs veh, LARP1B / RFU, RASA1 / Fold change vs veh, RASA1 / RFU, RB1 / Fold change vs veh, RB1 / RFU, PPFIA1 / Fold change vs veh, PPFIA1 / RFU, MAT2A / Fold change vs veh, MAT2A / RFU, CCT5 / Fold change vs veh, CCT5 / RFU, WDR92 / Fold change vs veh, WDR92 / RFU, CUX1 / Fold change vs veh, CUX1 / RFU, TTC7A / Fold change vs veh, TTC7A / RFU, TMEM135 / Fold change vs veh, TMEM135 / RFU, DEPTOR / Fold change vs veh, DEPTOR / RFU, CPM / Fold change vs veh, CPM / RFU, DNAJB6 / Fold change vs veh, DNAJB6 / RFU, CACNA2D3 / Fold change vs veh, CACNA2D3 / RFU, DTX4 / Fold change vs veh, DTX4 / RFU, TFCP2 / Fold change vs veh, TFCP2 / RFU, GMCL1 /// GMCL1P1 / Fold change vs veh, GMCL1 /// GMCL1P1 / RFU, AEBP2 / Fold change vs veh, AEBP2 / RFU, SNHG1 /// SNORD22 /// SNORD25 /// SNORD26 /// SNORD27 /// SNORD28 /// SNORD29 /// SNORD31 / Fold change vs veh, SNHG1 /// SNORD22 /// SNORD25 /// SNORD26 /// SNORD27 /// SNORD28 /// SNORD29 /// SNORD31 / Fold change (Aza/veh), C12orf56 (ProbeSet 11735607_a_at) / Fold change (ACY-1035/veh), C12orf56 (ProbeSet 11735607_a_at) / Fold change (Aza/veh), FGFR1OP (ProbeSet 11751329_s_at) / Fold change (ACY-1035/veh), FGFR1OP (ProbeSet 11751329_s_at) / Fold change (Aza/veh), VPS36 (ProbeSet 11739960_a_at) / Fold change (ACY-1035/veh), VPS36 (ProbeSet 11739960_a_at) / RFU SYPL1 (11715823_x_at) / Fold change /veh SYPL1 (11715823_x_at) / RFU IGFBP7 (11715501_s_at) / Fold change /veh IGFBP7 (11715501_s_at) / RFU REEP3 (11722064_at) / Fold change /veh REEP3 (11722064_at) / RFU IGLL1 (11728026_x_at) / Fold change /veh IGLL1 (11728026_x_at): dose or concentration left out as unconfirmed
Conditions: MV-4-11 cells, 48 hours

Nc1ccc(-c2cccs2)cc1NC(=O)c1ccc2c(c1)cc(C1CC1)n2CCN1CCOCC1 [ACY-1035]
RFU SAMD14 (11745864_x_at): 19.46 RFU
